According to patent publication US20260258047A1, “COMPOSITIONS USEFUL FOR MODULATING SPLICING” (Skyhawk Therapeutics, Inc., priority 2023, published 2026):

test system: ATXN3 transcripts containing exon 4; assay: ATXN3 quantitative splicing assay (qPCR, E4E5 primers/probe); assay type: cell-based; settings: Human neuroblastoma SK-N-MC cells, 24 h treatment, qPCR of transcripts containing exon 4; read-out: ATXN3 Potency - Splicing E4E5 IC50
Protocol: Human neuroblastoma SK-N-MC cells were plated in 384-well plates at 20,000 cells/well. Twenty-four hours after plating, cells were treated with compounds for 24 h at appropriate concentrations ranging from 30 μM to 0.6 nM (0.3% DMSO). Treated cells were lysed in 15 μL of lysis buffer, and cDNA was synthesized using the Fast Advanced Cells-to-Ct kit. Two μL of each cDNA was used in qPCR reactions to confirm the exon 4 skipped transcripts of ATXN3. A second set of primers/probe E4E5 was used to detect the transcripts containing exon 4. The third set of primers/probe E8E9 was used to detect total gene level of ATXN3. The qPCR reactions were prepared in 384-well plates in 10 μL volume, using TaqMan™ Fast Advanced Master Mix with primers and probes shown in the table below. Reactions were run in a Quant Studio 6 qPCR instrument with default settings.
The primers and probes are listed below in Table 3.

Row | Structure (SMILES) | IC50 [nM]
1 | C[C@H](F)[C@H](N)Cc1cc2c(NCc3ncccc3F)nc(Cl)nn2c1Br [Compound 3, 6-((2R,3S)-2-amino-3-fluorobutyl)-7-bromo-2-chloro-N-((3-fluoropyridin-2-yl)methyl)pyrrolo[2,1-f][1,2,4]triazin-4-amine] | 501 to 5000
2 | Cc1c(C[C@@H](N)CC2CC2)cc2c(NCc3ccncn3)nc(Cl)nn12 [Compound 9, (S)-6-(2-amino-3-cyclopropylpropyl)-2-chloro-7-methyl-N-(pyrimidin-4-ylmethyl)pyrrolo[2,1-f][1,2,4]triazin-4-amine] | 501 to 5000
3 | Cc1c(C[C@@H](N)CC2CC2)cc2c(NCc3ccncc3)nc(Cl)nn12 [Compound 8, (S)-6-(2-amino-3-cyclopropylpropyl)-2-chloro-7-methyl-N-(pyridin-4-ylmethyl)pyrrolo[2,1-f][1,2,4]triazin-4-amine] | 501 to 5000
4 | Cc1c(C[C@@H](N)[C@H](C)F)cc2c(NCc3ccncc3F)nc(Cl)nn12 [Compound 7, 6-((2R,3S)-2-amino-3-fluorobutyl)-2-chloro-N-((3-fluoropyridin-4-yl)methyl)-7-methylpyrrolo[2,1-f][1,2,4]triazin-4-amine] | 101 to 500
5 | Cc1c(C[C@@H](N)[C@H](C)F)cc2c(NCc3ccncn3)nc(Cl)nn12 [Compound 6, 6-((2R,3S)-2-amino-3-fluorobutyl)-2-chloro-7-methyl-N-(pyrimidin-4-ylmethyl)pyrrolo[2,1-f][1,2,4]triazin-4-amine] | 101 to 500
6 | Cc1c(C[C@@H](N)CC2CC2)cc2c(NCc3ccncc3F)nc(Cl)nn12 [Compound 10, (S)-6-(2-amino-3-cyclopropylpropyl)-2-chloro-N-((3-fluoropyridin-4-yl)methyl)-7-methylpyrrolo[2,1-f][1,2,4]triazin-4-amine] | 501 to 5000
7 | C[C@H](F)[C@H](N)Cc1cc2c(NCc3c(F)cncc3F)nc(Cl)nn2c1Br [Compound 4, 6-((2R,3S)-2-amino-3-fluorobutyl)-7-bromo-2-chloro-N-((3,5-difluoropyridin-4-yl)methyl)pyrrolo[2,1-f][1,2,4]triazin-4-amine] | 101 to 500

The remaining lines, values ahead:

Row | IC50 [nM] | Structure (SMILES)
8 | 101 to 500 | Cc1c(C[C@@H](N)[C@H](C)F)cc2c(NCc3ccncc3)nc(Cl)nn12 [Compound 5, 6-((2R,3S)-2-amino-3-fluorobutyl)-2-chloro-7-methyl-N-(pyridin-4-ylmethyl)pyrrolo[2,1-f][1,2,4]triazin-4-amine]
9 | 0.01 to 100 | C[C@H](F)[C@H](N)Cc1cc2c(NCc3ccncc3F)nc(Cl)nn2c1Br [Compound 1, 6-((2R,3S)-2-amino-3-fluorobutyl)-7-bromo-2-chloro-N-((3-fluoropyridin-4-yl)methyl)pyrrolo[2,1-f][1,2,4]triazin-4-amine]
10 | 0.01 to 100 | C[C@H](F)[C@H](N)Cc1cc2c(NCc3ccncn3)nc(Cl)nn2c1Br [Compound 2, 6-((2R,3S)-2-amino-3-fluorobutyl)-7-bromo-2-chloro-N-(pyrimidin-4-ylmethyl)pyrrolo[2,1-f][1,2,4]triazin-4-amine]
